Test results from ChEMBL document CHEMBL6078711, “Design, synthesis, and biological evaluation of steroidal indole derivatives as membrane-targeting antibacterial candidates” (Eur J Med Chem, 2025).
≈ marks a conversion by molar mass, not a printed value. Calls of active or inactive are those of the source. The calls are words filed in the database; no cut-off is given here.

Assays:
[1] = system: Staphylococcus aureus; experiment: Antibacterial activity against Staphylococcus aureus CGMCC1.8721 assessed as reduction in bacterial growth; assay type: functional
[2] = system: Staphylococcus aureus; experiment: Antibacterial activity against methicillin-resistant Staphylococcus aureus ATCC 43300 assessed as reduction in bacterial growth; assay type: functional
[3] = system: Staphylococcus aureus; experiment: Antibacterial activity against methicillin-resistant Staphylococcus aureus ATCC 33591 assessed as reduction in bacterial growth; assay type: functional
[4] = system: Staphylococcus aureus; experiment: Antibacterial activity against methicillin-resistant Staphylococcus aureus CGMCC 1.12409 assessed as reduction in bacterial growth; assay type: functional
[5] = system: Staphylococcus aureus; experiment: Antibacterial activity against Staphylococcus aureus CGMCC1.8721 assessed as reduction in bacterial growth in presence of phosphatidylglycerol; assay type: functional
[6] = system: Staphylococcus aureus; experiment: Bactericidal activity against methicillin-resistant Staphylococcus aureus ATCC 33591 assessed as reduction in bacterial growth; assay type: functional
[7] = system: Staphylococcus aureus; experiment: Bactericidal activity against Staphylococcus aureus CGMCC1.8721 assessed as reduction in bacterial growth; assay type: functional
[8] = system: Staphylococcus aureus; experiment: Bactericidal activity against methicillin-resistant Staphylococcus aureus CGMCC 1.12409 assessed as reduction in bacterial growth; assay type: functional
[9] = system: Staphylococcus aureus; experiment: Bactericidal activity against methicillin-resistant Staphylococcus aureus ATCC 43300 assessed as reduction in bacterial growth; assay type: functional
[10] = system: Staphylococcus aureus; experiment: Antibacterial activity against Methicillin-resistant Staphylococcus aureus CGMCC1.8721 infected in mouse skin infection model assessed as reduction in bacterial load at 5 mg/kg, sc; assay type: functional; parameters: scale not given: the % may be the effect or the level left
[11] = system: Staphylococcus aureus; experiment: Antibacterial activity against Methicillin-resistant Staphylococcus aureus CGMCC1.8721 infected in mouse skin infection model assessed as reduction in bacterial clones at 5 mg/kg, sc; assay type: functional, organism-based

Compound: C[C@H](Cc1c[nH]c2ccc(CN3CCNCC3)cc12)[C@H]1CC[C@H]2[C@@H]3CC[C@@H]4C[C@H](O)CC[C@]4(C)[C@H]3CC[C@]12C
- MIC [1]: 8 µg/mL (≈ 15 µM)
- MIC [2]: 16 µg/mL (≈ 30.1 µM)
- MIC [3]: 16 µg/mL (≈ 30.1 µM)
- MIC [4]: 16 µg/mL (≈ 30.1 µM)

Compound: CC1(C)S[C@@H]2[C@H](NC(=O)[C@H](N)c3ccccc3)C(=O)N2[C@H]1C(=O)O
- Activity [5]: inactive

Compound: C[C@H](Cc1c[nH]c2ccc(CNc3ccc(C(F)(F)F)cc3)cc12)[C@H]1CC[C@H]2[C@@H]3CC[C@@H]4C[C@H](O)CC[C@]4(C)[C@H]3CC[C@]12C
- MIC [1]: 16 µg/mL (≈ 26.4 µM)
- MIC [2]: 32 µg/mL (≈ 52.7 µM)
- MIC [4]: > 32 µg/mL

Compound: C[C@H](Cc1c[nH]c2ccc(CN3CCN(C)CC3)cc12)[C@H]1CC[C@H]2[C@@H]3CC[C@@H]4C[C@H](O)CC[C@]4(C)[C@H]3CC[C@]12C
- MIC [1]: 16 µg/mL (≈ 29.3 µM)

Compound: C[C@H](Cc1c[nH]c2ccc(CN3CCOCC3)cc12)[C@H]1CC[C@H]2[C@@H]3CC[C@@H]4C[C@H](O)CC[C@]4(C)[C@H]3CC[C@]12C
- MIC [1]: 16 µg/mL (≈ 30 µM)
- MIC [2]: 32 µg/mL (≈ 60.1 µM)

Compound: COc1ccc2[nH]cc(C[C@@H](C)[C@H]3CC[C@H]4[C@@H]5[C@H](O)C[C@@H]6C[C@H](O)CC[C@]6(C)[C@H]5C[C@H](O)[C@]34C)c2c1
- MIC [1]: 16 µg/mL (≈ 32.3 µM)
- MIC [2]: 32 µg/mL (≈ 64.6 µM)
- MIC [3]: 32 µg/mL (≈ 64.6 µM)
- MIC [4]: 32 µg/mL (≈ 64.6 µM)

Compound: C[C@H](Cc1c[nH]c2ccc(CNCCN3CCN(C)CC3)cc12)[C@H]1CC[C@H]2[C@@H]3CC[C@@H]4C[C@H](O)CC[C@]4(C)[C@H]3CC[C@]12C
- MIC [1]: 2 µg/mL (≈ 3.4 µM)
- MIC [2]: 2 µg/mL (≈ 3.4 µM)
- MIC [3]: 4 µg/mL (≈ 6.79 µM)
- MIC [4]: 4 µg/mL (≈ 6.79 µM)

Compound: CCn1cc(C(=O)O)c(=O)c2cc(F)c(N3CCNCC3)cc21
- Activity [5]: inactive

Compound: C[C@H](Cc1c[nH]c2ccccc12)[C@H]1CC[C@H]2[C@@H]3CC[C@@H]4C[C@H](O)CC[C@]4(C)[C@H]3CC[C@]12C
- MIC [1]: > 32 µg/mL

Compound: COc1ccc2[nH]cc(C[C@@H](C)[C@H]3CC[C@H]4[C@@H]5[C@H](O)C[C@@H]6C[C@H](O)CC[C@]6(C)[C@H]5CC[C@]34C)c2c1
- MIC [1]: 16 µg/mL (≈ 33.4 µM)
- MIC [2]: 32 µg/mL (≈ 66.7 µM)
- MIC [3]: 32 µg/mL (≈ 66.7 µM)
- MIC [4]: 32 µg/mL (≈ 66.7 µM)

Compound: COc1ccc2[nH]cc([C@H]3CC[C@H]4[C@@H]5CC[C@H]6C[C@@H](O)CC[C@]6(C)[C@H]5CC[C@]34C)c2c1
- MIC [1]: 16 µg/mL (≈ 37.9 µM)
- MIC [2]: 16 µg/mL (≈ 37.9 µM)

Compound: C[C@H](Cc1c[nH]c2ccc(CN3CCC(N4CCCC4)CC3)cc12)[C@H]1CC[C@H]2[C@@H]3CC[C@@H]4C[C@H](O)CC[C@]4(C)[C@H]3CC[C@]12C
- MIC [1]: 16 µg/mL (≈ 26.7 µM)
- MIC [2]: 16 µg/mL (≈ 26.7 µM)

Compound: C[C@H](Cc1c[nH]c2ccc(CO)cc12)[C@H]1CC[C@H]2[C@@H]3CC[C@@H]4C[C@H](O)CC[C@]4(C)[C@H]3CC[C@]12C
- MIC [1]: 16 µg/mL (≈ 34.5 µM)
- MIC [2]: 32 µg/mL (≈ 69 µM)
- MIC [4]: 32 µg/mL (≈ 69 µM)

Compound: C[C@H](Cc1c[nH]c2ccc(CN3CCC(O)C3)cc12)[C@H]1CC[C@H]2[C@@H]3CC[C@@H]4C[C@H](O)CC[C@]4(C)[C@H]3CC[C@]12C (some centres undefined)
- MIC [1]: 8 µg/mL (≈ 15 µM)
- MIC [2]: 16 µg/mL (≈ 30 µM)

Compound: COc1ccc2[nH]cc([C@H]3CC[C@H]4[C@@H]5CCc6cc(O)ccc6[C@H]5CC[C@]34C)c2c1
- MIC [1]: 16 µg/mL (≈ 39.8 µM)
- MIC [2]: 32 µg/mL (≈ 79.7 µM)

Compound: CNCc1ccc2[nH]cc(C[C@@H](C)[C@H]3CC[C@H]4[C@@H]5CC[C@@H]6C[C@H](O)CC[C@]6(C)[C@H]5CC[C@]34C)c2c1
- MIC [1]: 2 µg/mL (≈ 4.2 µM)
- MBC [6]: 4 µg/mL (≈ 8.39 µM)
- MIC [2]: 2 µg/mL (≈ 4.2 µM)
- MBC [7]: 2 µg/mL (≈ 4.2 µM)
- MBC [8]: 4 µg/mL (≈ 8.39 µM)
- MIC [3]: 2 µg/mL (≈ 4.2 µM)
- MIC [4]: 2 µg/mL (≈ 4.2 µM)
- MBC [9]: 4 µg/mL (≈ 8.39 µM)

Compound: COc1ccc(NCc2ccc3[nH]cc(C[C@@H](C)[C@H]4CC[C@H]5[C@@H]6CC[C@@H]7C[C@H](O)CC[C@]7(C)[C@H]6CC[C@]45C)c3c2)cc1
- MIC [1]: 16 µg/mL (≈ 28.1 µM)
- MIC [2]: 16 µg/mL (≈ 28.1 µM)

Compound: O=C(N[C@H](CO)[C@H](O)c1ccc([N+](=O)[O-])cc1)C(Cl)Cl
- Activity [5]: inactive

Compound: CN[C@H](CC(C)C)C(=O)N[C@H]1C(=O)N[C@@H](CC(N)=O)C(=O)N[C@H]2C(=O)N[C@H]3C(=O)N[C@H](C(=O)N[C@H](C(=O)O)c4cc(O)cc(O)c4-c4cc3ccc4O)[C@H](O)c3ccc(c(Cl)c3)Oc3cc2cc(c3O[C@@H]2O[C@H](CO)[C@@H](O)[C@H](O)[C@H]2O[C@H]2C[C@](C)(N)[C@H](O)[C@H](C)O2)Oc2ccc(cc2Cl)[C@H]1O [VANCOMYCIN]
- Activity [5]: inactive
- Activity [10]: 87%
- Activity [11]: Active

Compound: CCNCc1ccc2[nH]cc([C@H]3CC[C@H]4[C@@H]5CC[C@H]6C[C@@H](O)CC[C@]6(C)[C@H]5CC[C@]34C)c2c1
- MIC [1]: 4 µg/mL (≈ 8.91 µM)
- MBC [6]: 16 µg/mL (≈ 35.7 µM)
- MIC [2]: 4 µg/mL (≈ 8.91 µM)
- MBC [7]: 8 µg/mL (≈ 17.8 µM)
- MBC [8]: 16 µg/mL (≈ 35.7 µM)
- MIC [3]: 8 µg/mL (≈ 17.8 µM)
- MIC [4]: 8 µg/mL (≈ 17.8 µM)
- MBC [9]: 8 µg/mL (≈ 17.8 µM)

Compound: CC1CN(Cc2ccc3[nH]cc(C[C@@H](C)[C@H]4CC[C@H]5[C@@H]6CC[C@@H]7C[C@H](O)CC[C@]7(C)[C@H]6CC[C@]45C)c3c2)CC(C)N1 (some centres undefined)
- MIC [1]: 32 µg/mL (≈ 57.2 µM)

Compound: C[C@H](Cc1c[nH]c2ccc(CN3CC(O)C3)cc12)[C@H]1CC[C@H]2[C@@H]3CC[C@@H]4C[C@H](O)CC[C@]4(C)[C@H]3CC[C@]12C
- MIC [1]: 8 µg/mL (≈ 15.4 µM)
- MIC [2]: 8 µg/mL (≈ 15.4 µM)
- MIC [3]: 16 µg/mL (≈ 30.8 µM)
- MIC [4]: 16 µg/mL (≈ 30.8 µM)

Compound: CCCCCCCCCC(=O)N[C@@H](Cc1c[nH]c2ccccc12)C(=O)N[C@@H](CC(N)=O)C(=O)N[C@@H](CC(=O)O)C(=O)N[C@@H]1C(=O)NCC(=O)N[C@@H](CCCN)C(=O)N[C@@H](CC(=O)O)C(=O)N[C@H](C)C(=O)N[C@@H](CC(=O)O)C(=O)NCC(=O)N[C@H](CO)C(=O)N[C@@H]([C@@H](C)CC(=O)O)C(=O)N[C@@H](CC(=O)c2ccccc2N)C(=O)O[C@@H]1C
- Activity [5]: Active

Compound: C[C@H](Cc1c[nH]c2ccc(CNCCCl)cc12)[C@H]1CC[C@H]2[C@@H]3CC[C@@H]4C[C@H](O)CC[C@]4(C)[C@H]3CC[C@]12C
- MIC [1]: 32 µg/mL (≈ 60.9 µM)

Compound: CCNCc1ccc2[nH]cc([C@H]3CC[C@H]4[C@@H]5CCc6cc(O)ccc6[C@H]5CC[C@]34C)c2c1
- MIC [1]: 1 µg/mL (≈ 2.33 µM)
- MBC [6]: 8 µg/mL (≈ 18.7 µM)
- MIC [2]: 1 µg/mL (≈ 2.33 µM)
- MBC [7]: 2 µg/mL (≈ 4.67 µM)
- MBC [8]: 8 µg/mL (≈ 18.7 µM)
- MIC [3]: 4 µg/mL (≈ 9.33 µM)
- MIC [4]: 4 µg/mL (≈ 9.33 µM)
- MBC [9]: 2 µg/mL (≈ 4.67 µM)

Compound: C[C@H](Cc1c[nH]c2ccc(CN3CCSCC3)cc12)[C@H]1CC[C@H]2[C@@H]3CC[C@@H]4C[C@H](O)CC[C@]4(C)[C@H]3CC[C@]12C
- MIC [1]: 8 µg/mL (≈ 14.6 µM)
- MIC [2]: 16 µg/mL (≈ 29.2 µM)
- MIC [3]: 16 µg/mL (≈ 29.2 µM)
- MIC [4]: 16 µg/mL (≈ 29.2 µM)

Compound: CCCNCc1ccc2[nH]cc(C[C@@H](C)[C@H]3CC[C@H]4[C@@H]5CC[C@@H]6C[C@H](O)CC[C@]6(C)[C@H]5CC[C@]34C)c2c1
- MIC [1]: 32 µg/mL (≈ 63.4 µM)
- MIC [2]: 32 µg/mL (≈ 63.4 µM)

Compound: COc1ccc2[nH]cc(C[C@@H](C)[C@H]3CC[C@H]4[C@@H]5CC[C@@H]6C[C@H](O)CC[C@]6(C)[C@H]5CC[C@]34C)c2c1
- MIC [1]: 16 µg/mL (≈ 34.5 µM)
- MIC [2]: 32 µg/mL (≈ 69 µM)
- MIC [3]: 32 µg/mL (≈ 69 µM)
- MIC [4]: 32 µg/mL (≈ 69 µM)

Compound: C[C@H](Cc1c[nH]c2ccc(CNCCO)cc12)[C@H]1CC[C@H]2[C@@H]3CC[C@@H]4C[C@H](O)CC[C@]4(C)[C@H]3CC[C@]12C
- MIC [1]: 16 µg/mL (≈ 31.6 µM)
